The record followed here is patent US11622974B2, “Prebiotic composition and its use” (CP KELCO U.S., INC., priority 2019, dated 2023).

Molecules are shown by their SMILES.

The subject of one data set is Bifidobacterium. Briefly: i-screen in vitro fermentation of fecal microbiota pool: Bifidobacterium growth. As to conditions: second i-screen, relative to untreated control (1.0). Type of data set: cell-based. On the procedure:
(§1) Samples containing 8 mg/mL (0.8% w/v) of SPS or SOS were diluted by a factor of two to provide samples containing 4 mg/mL (0.4% w/v) of SPS or SOS. The effect of Sample Nos. 1-12 at a concentration of 4 mg/mL on a panel of over twenty-five gut microbiota was assessed after 24 h of fermentation using an in vitro fermentation screening platform (“i-screen”), as described by Fehlbaum (2018). Specifically, a standard fecal microbiota pool derived from 5-6 healthy adults (health based on exclusion criteria) was used that was pre-cultured overnight from a frozen stock. […] A number of sphingan samples and comparative samples—plant extracts (e.g., pectins, pectin oligosaccharides, and carrageenans) and biogums (e.g., xanthan and xanthan oligosaccharides)) were analyzed at a concentration of about 4 mg/mL, which corresponds to a dose of about 4 g/day. […]
(§2) Shifts in microbiota composition were determined by next generation sequencing, which recognizes bacteria at the genus level and in many cases (but not all) at the species level. To have a uniform distribution of samples in the sequencing pool total bacterial load was established by a quantitative Polymerase Chain Reaction (“PCR”) using a universal primer-probe set. […] Next, amplicons were gel-purified, quantified and pooled. […]
(§3) The standard controls were carried out in triplicate. […] The effect was determined relative to an untreated control. […]

For the next data set, the system named is Blautia. Briefly: i-screen in vitro fermentation of fecal microbiota pool: Blautia growth. The data set is classed as cell-based. As to conditions: second i-screen, pool H1, relative to untreated control (1.0). The procedure:
as §1, §2, §3

In the next data set the test system is Faecalibacterium. Briefly: i-screen in vitro fermentation of fecal microbiota pool: Faecalibacterium growth. Type of data set: cell-based. Particulars: second i-screen, pool H1, relative to untreated control (1.0). On the procedure: as §1, §2, §3
The subject of the next data set is Parabacteroides. Briefly: i-screen in vitro fermentation of fecal microbiota pool: Parabacteroides growth. Type of data set: cell-based. As to conditions: second i-screen, pool H1, relative to untreated control (1.0). On the procedure:
as §1, §2, §3

The subject of data set [1] is Lachnospiraceae unclassified. The data set is described as follows: i-screen in vitro fermentation: Lachnospiraceae unclassified growth. Type of data set: cell-based. As to conditions: second i-screen, relative to untreated control (1.0). On the procedure: as §1, §2, §3
The next data set concerns Clostridium XlVa. Briefly: i-screen in vitro fermentation: Clostridium XlVa growth. Type of data set: cell-based. Particulars: second i-screen, relative to untreated control (1.0).
The subject of a further data set is Coprococcus. The data set is described as follows: i-screen in vitro fermentation: Coprococcus growth. Type of data set: cell-based. As to conditions: second i-screen, relative to untreated control (1.0). The procedure:
as §1, §2, §3

The subject of another data set is Phascolarctobacterium. The data set is described as follows: i-screen in vitro fermentation: Phascolarctobacterium growth. Type of data set: cell-based. Particulars: second i-screen, relative to untreated control (1.0). The procedure:
as §1, §2, §3

The next data set deals with Butyricicoccus. Briefly: i-screen in vitro fermentation: Butyricicoccus growth. Particulars: second i-screen, relative to untreated control (1.0). The data set is classed as cell-based. On the procedure: as §1, §2, §3
Another data set relates to NF-κB. Briefly: Caco-2/THP1-Blue co-culture: NF-κB activity after LPS. The data set is classed as cell-based, human. As to conditions: control tests, versus LPS+. The text has this:
(§4) Samples collected from the SHIME experiment described above were used to evaluate in vitro the effect of the fermented products on intestinal epithelial barrier function and immune markers. These include samples from the proximal and distal colon reactors of three different donors, collected at the end of the control and treatment periods.
THP1-Blue™ (InvivoGen) cells were maintained in Roswell Park Memorial Institute (RPMI) 1640 medium containing glucose and glutamine, supplemented with HEPES, sodium pyruvate and 10% (v/v) H1-FBS. THP1-Blue™ are THP1 human monocytes stably transfected with a reporter construct expressing a secreted alkaline phosphatase (SEAP) gene under the control of a promoter inducible by the transcription factor nuclear factor kappa B (NF-κB). Upon TLR activation (e.g., by lipopolysaccharide (LPS); isolated from Gram-negative bacteria), NF-κB becomes activated and induces the expression and secretion of SEAP. SEAP activity can then be measured in the supernatants by using the QUANTI-Blue reagent (InvivoGen). […]
Briefly, the apical compartment (containing the Caco-2 cells) was filled with sterile-filtered (0.22 μm) colonic SHIME suspensions or with different concentrations of live bacteria. […] Cells were treated for 24 h, after which the TEER was measured (=24 h time point). […]

The next data set deals with IL-1β. The data set is described as follows: Caco-2/THP1-Blue co-culture: IL-1β secretion after LPS. The data set is classed as cell-based, human. As to conditions: control tests, versus LPS+.
Text: as §4
(§5) Briefly, the apical compartment (containing the Caco-2 cells) was filled with sterile-filtered (0.22 μm) colonic SHIME suspensions or with different concentrations of live bacteria. Cells were also treated apically with sodium butyrate (NaB) (Sigma-Aldrich) as positive control. The basolateral compartment (containing the THP1-Blue™ cells) was filled with Caco-2 complete medium. Cells were also exposed to Caco-2 complete medium in both chambers as control. Cells were treated for 24 h, after which the TEER was measured (=24 h time point). After subtracting the TEER of the empty insert, all 24 h values were normalized to its own 0 h value (to account for the differences in initial TEER of the different inserts) and are presented as percentage of initial value. Then, the basolateral supernatant was discarded, and cells were stimulated at the basolateral side with Caco-2 complete medium containing ultrapure LPS (Escherichia coli K12, InvivoGen). […]

Data set [2] relates to Caco-2/THP1-Blue™ co-cultures. The data set is described as follows: Caco-2/THP1-Blue co-culture: transepithelial electrical resistance (TEER). Type of data set: cell-based, human. As to conditions: control tests, apical treatment 24 h, versus complete medium. The source says: To mimic the interface between host and gut microbiome, several in vitro models have been developed in the past years which include the use of intestinal epithelial-like cells and immune cells of human origin. The model used herein was a co-culture model of intestinal epithelial-like cells (Caco-2 cells) and human monocytes/macrophages (THP1 cells). (See FIG. 14; see also Possemiers (2013) Satsu (2006).) Caco-2, when seeded on suitable supports, spontaneously differentiate into mature enterocyte-like cells, characterized by polarization, presence of villi, formation of domes, presence of tight junctions and vectorial transport and expression of apical brush-border enzymes (reviewed by Sambuy (2005)). THP1 monocytes, isolated from a human patient with acute leukemia, differentiate into macrophage-like cells upon phorbol 12-myristate 13-acetate (PMA) treatment. […] The ‘tightness’ of these junctions can be measured as transepithelial electrical resistance (TEER), with a high TEER corresponding to a tighter barrier. Upon loss of barrier function, the paracellular transport (in-between cells) of fluids increases, which can be measured as a reduction of the TEER. […] This is possibly due to cytokine-mediated disruption of tight junctions and can be measured as a decrease in TEER. […]

For another data set, the system named is IL-6. Briefly: Caco-2/THP1-Blue co-culture: IL-6 secretion after LPS. The data set is classed as cell-based, human. Particulars: control tests, versus LPS+.
Text: as §4, §5

A further data set relates to IL-10. The data set is described as follows: Caco-2/THP1-Blue co-culture: IL-10 secretion after LPS. The data set is classed as cell-based, human. As to conditions: control tests, versus LPS+.
Text: as §4, §5

The subject of a further data set is TNF-α. Briefly: Caco-2/THP1-Blue co-culture: TNF-α secretion after LPS. Type of data set: cell-based, human. Particulars: control tests, versus LPS+.
Text: as §4, §5

For a further data set, the system named is IL-8. Briefly: Caco-2/THP1-Blue co-culture: IL-8 secretion after LPS. Particulars: control tests, versus LPS+. Type of data set: cell-based, human.
Text: as §4, §5

A further data set has as its system CXCL10. Briefly: Caco-2/THP1-Blue co-culture: CXCL10 secretion after LPS. Type of data set: cell-based, human. Particulars: control tests, versus LPS+.
Text: as §4, §5

The next data set deals with MCP-1. Briefly: Caco-2/THP1-Blue co-culture: MCP-1 secretion after LPS. Particulars: control tests, versus LPS+. The data set is classed as cell-based, human.
Text: as §4, §5

Method for Clostridium XlVa: The effect of Sample Nos. 1-12 at a concentration of 4 mg/mL on a panel of over twenty-five gut microbiota was assessed after 24 h of fermentation using an in vitro fermentation screening platform (“i-screen”), as described by Fehlbaum (2018). Specifically, a standard fecal microbiota pool derived from 5-6 healthy adults (health based on exclusion criteria) was used that was pre-cultured overnight from a frozen stock. This was followed by dilution in microtiter plates in which the samples were added and subsequently anaerobically incubated for 24 h at 37° C. After incubation, culture samples were harvested and processed for further analysis. […] A number of sphingan samples and comparative samples—plant extracts (e.g., pectins, pectin oligosaccharides, and carrageenans) and biogums (e.g., xanthan and xanthan oligosaccharides)) were analyzed at a concentration of about 4 mg/mL, which corresponds to a dose of about 4 g/day.

`CC1(C)S[C@@H]2[C@H](NC(=O)[C@H](N)c3ccc(O)cc3)C(=O)N2[C@H]1C(=O)O` [CS20, Amoxicillin] had a Bifid. growth in the data set on Bifidobacterium of 0.24. The compound also had a Blaut. growth with Blautia of 0.23. The same compound registered a Faecal. growth in the data set on Faecalibacterium of 0.37. In the data set with Parabacteroides, this compound showed a Para. growth of 12.10. In addition, the “Lachn. U. growth” value in data set [1] is reported as 0.04. In the data set with Clostridium XlVa, this compound gave a ClX1Va growth of 0.03. In the data set on Coprococcus, the Copro. growth came out at 0.04. In the data set on Phascolarctobacterium, this compound came in with a Phasc. growth of 0.08. This compound also displayed a Butyr. growth in the data set with Butyricicoccus of 0.00.
In the case of `C[C@]12CCC(=O)C=C1CC[C@@H]1[C@@H]2[C@@H](O)C[C@@]2(C)[C@H]1CC[C@]2(O)C(=O)CO` [HC, hydrocortisone], the “LPS-induced NF-κB transcriptional activity” value in the data set on NF-κB is on record as “inhibiting”. For the same compound, in the data set on IL-1β, the “LPS-induced IL-1β expression” value is reported as “did not reduce”.
Turning to `CCCC(=O)[O-].[Na+]` [NaB, sodium butyrate], in data set [2], the “TEER of the Caco-2 monolayer” value is reported as “maintain the TEER”. For the same compound, the “LPS-induced NF-κB transcriptional activity” value in the data set on NF-κB is given as “increased”. Further, the “LPS-induced IL-6 secretion” value in the data set on IL-6 is “selectively increased”. The “LPS-induced IL-10 secretion” value in the data set on IL-10 was “selectively increased”. In the data set with IL-1β, the “LPS-induced IL-1β expression” value is “did not reduce”. In the data set with TNF-α, the “LPS-induced TNF-α” value is given as “selectively inhibited”. Besides, in the data set on IL-8, the “LPS-induced IL-8” value is given as “selectively inhibited”. In the data set with CXCL10, the “LPS-induced CXCL10” value is recorded as “selectively inhibited”. The “LPS-induced MCP-1” value in the data set on MCP-1 is “selectively inhibited”.
